From patent US20230085307A1, “PYRIDAZINONE COMPOUND AND HERBICIDE” (NISSAN CHEMICAL CORPORATION, priority 2019, published 2023)

Experiments:
barnyard grass [1] = assay: Test Example 3: herbicidal effect by foliage application, Wagner pot (Table 18, symbol H); format: in vivo, barnyard grass (Echinochloa crus-galli); settings: 320 g/ha
Method in brief: (§1)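 Plants were sown in alluvial soil held under 0.1–0.5 cm standing water and grown 14 days in a greenhouse at 25–30 °C. An emulsifiable formulation, water-diluted to the set dose, was then sprayed onto the foliage, and effects were scored three weeks later using previously defined criteria.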

Chinese sprangletop = assay: Test Example 3: herbicidal effect by foliage application, Wagner pot (Table 18, symbol D); format: in vivo, chinese sprangletop (Leptochloa chinensis); settings: 320 g/ha
Method in brief: as §1

rice flat sedge = assay: Test Example 3: herbicidal effect by foliage application, Wagner pot (Table 18, symbol E); format: in vivo, rice flat sedge (Cyperus iria); settings: 320 g/ha
Method in brief: as §1

southern crabgrass = assay: Test Example 5: herbicidal effect by foliage application, plastic box (Table 20, symbol F); format: in vivo, southern crabgrass (Digitaria ciliaris); settings: amount of applied herbicide 320 g/ha; foliage application after 14-day growth; evaluated three weeks after application
Method in brief: (§2)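 Post-emergence foliar test in sterilized diluvial soil. Compound applied as water-diluted emulsion at a predetermined rate to 14-day-old plants; evaluation at three weeks.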

green foxtail = assay: Test Example 5: herbicidal effect by foliage application, plastic box (Table 20, symbol G); format: in vivo, green foxtail (Setaria viridis); settings: amount of applied herbicide 320 g/ha; foliage application after 14-day growth; evaluated three weeks after application
Method in brief: as §2

barnyard grass [2] = assay: Test Example 5: herbicidal effect by foliage application, plastic box (Table 20, symbol H); format: in vivo, barnyard grass (Echinochloa crus-galli); settings: amount of applied herbicide 320 g/ha; foliage application after 14-day growth; evaluated three weeks after application
Method in brief: as §2

wild oat = assay: Test Example 5: herbicidal effect by foliage application, plastic box (Table 20, symbol I); format: in vivo, wild oat (Avena fatua); settings: amount of applied herbicide 320 g/ha; foliage application after 14-day growth; evaluated three weeks after application
Method in brief: as §2

blackgrass = assay: Test Example 5: herbicidal effect by foliage application, plastic box (Table 20, symbol J); format: in vivo, blackgrass (Alopecurus myosuroides); settings: amount of applied herbicide 320 g/ha; foliage application after 14-day growth; evaluated three weeks after application
Method in brief: as §2

Italian ryegrass = assay: Test Example 5: herbicidal effect by foliage application, plastic box (Table 20, symbol K); format: in vivo, Italian ryegrass (Lolium multiflorum); settings: amount of applied herbicide 320 g/ha; foliage application after 14-day growth; evaluated three weeks after application
Method in brief: as §2

windgrass = assay: Test Example 5: herbicidal effect by foliage application, plastic box (Table 20, symbol L); format: in vivo, windgrass (Apera spica-venti); settings: amount of applied herbicide 320 g/ha; foliage application after 14-day growth; evaluated three weeks after application
Method in brief: as §2

velvetleaf = assay: Test Example 5: herbicidal effect by foliage application, plastic box (Table 20, symbol M); format: in vivo, velvetleaf (Abutilon theophrasti); settings: amount of applied herbicide 320 g/ha; foliage application after 14-day growth; evaluated three weeks after application
Method in brief: as §2

redroot pigweed = assay: Test Example 5: herbicidal effect by foliage application, plastic box (Table 20, symbol N); format: in vivo, redroot pigweed (Amaranthus retroflexus); settings: amount of applied herbicide 320 g/ha; foliage application after 14-day growth; evaluated three weeks after application
Method in brief: as §2

lambsquarters = assay: Test Example 5: herbicidal effect by foliage application, plastic box (Table 20, symbol O); format: in vivo, lambsquarters (Chenopodium album); settings: amount of applied herbicide 320 g/ha; foliage application after 14-day growth; evaluated three weeks after application
Method in brief: as §2

chickweed = assay: Test Example 5: herbicidal effect by foliage application, plastic box (Table 20, symbol P); format: in vivo, common chickweed (Stellaria media); settings: amount of applied herbicide 320 g/ha; foliage application after 14-day growth; evaluated three weeks after application
Method in brief: as §2

persian speedwell = assay: Test Example 5: herbicidal effect by foliage application, plastic box (Table 20, symbol R); format: in vivo, Persian speedwell (Veronica persica); settings: amount of applied herbicide 320 g/ha; foliage application after 14-day growth; evaluated three weeks after application
Method in brief: as §2

Row | Compound | herbicidal effect on barnyard grass (H) (barnyard grass [1]) | herbicidal effect on Chinese sprangletop (D) (Chinese sprangletop) | herbicidal effect on rice flat sedge (E) (rice flat sedge) | Herbicidal effect by foliage application, F: southern crabgrass (southern crabgrass) | Herbicidal effect by foliage application, G: green foxtail (green foxtail) | Herbicidal effect by foliage application, H: barnyard grass (barnyard grass [2]) | Herbicidal effect by foliage application, I: wild oat (wild oat) | Herbicidal effect by foliage application, J: blackgrass (blackgrass) | Herbicidal effect by foliage application, K: Italian ryegrass (Italian ryegrass) | Herbicidal effect by foliage application, L: windgrass (windgrass) | Herbicidal effect by foliage application, M: velvetleaf (velvetleaf) | Herbicidal effect by foliage application, N: redroot pigweed (redroot pigweed) | Herbicidal effect by foliage application, O: lambsquarters (lambsquarters) | Herbicidal effect by foliage application, P: chickweed (chickweed) | Herbicidal effect by foliage application, R: persian speedwell (persian speedwell)
1 | CCCC(=O)Oc1c(C)nn(C)c(=O)c1-c1c(-c2ccc(OC)cc2)sc2cc(Cl)c(Cl)cc12 [5-044] | 3 (Herbicidal rate of 40% or more and less than 70%) | 3 (Herbicidal rate of 40% or more and less than 70%) | 3 (Herbicidal rate of 40% or more and less than 70%) | 0 (Herbicidal rate of 5% or less (almost no effect)) | 0 (Herbicidal rate of 5% or less (almost no effect)) | 0 (Herbicidal rate of 5% or less (almost no effect)) | 0 (Herbicidal rate of 5% or less (almost no effect)) | 0 (Herbicidal rate of 5% or less (almost no effect)) | 0 (Herbicidal rate of 5% or less (almost no effect)) | 0 (Herbicidal rate of 5% or less (almost no effect)) | 1 (Herbicidal rate of 5% or more and less than 20%) | 0 (Herbicidal rate of 5% or less (almost no effect)) | 3 (Herbicidal rate of 40% or more and less than 70%) | 5 (Herbicidal rate of 90% or more (almost completely withered)) | 4 (Herbicidal rate of 70% or more and less than 90%)
2 | Cc1nn(C)c(=O)c(-c2c(-c3ccc(C(F)(F)F)cc3)sc3cc(Cl)c(Cl)cc23)c1O [5-047] | 3 (Herbicidal rate of 40% or more and less than 70%) | 0 (Herbicidal rate of 5% or less (almost no effect)) | 0 (Herbicidal rate of 5% or less (almost no effect)) | 0 (Herbicidal rate of 5% or less (almost no effect)) | 0 (Herbicidal rate of 5% or less (almost no effect)) | 0 (Herbicidal rate of 5% or less (almost no effect)) | 0 (Herbicidal rate of 5% or less (almost no effect)) | 0 (Herbicidal rate of 5% or less (almost no effect)) | 0 (Herbicidal rate of 5% or less (almost no effect)) | 2 (Herbicidal rate of 20% or more and less than 40%) | 0 (Herbicidal rate of 5% or less (almost no effect)) | 3 (Herbicidal rate of 40% or more and less than 70%) | 1 (Herbicidal rate of 5% or more and less than 20%) | 0 (Herbicidal rate of 5% or less (almost no effect)) | 0 (Herbicidal rate of 5% or less (almost no effect))
